Among the test systems are OVCAR-8 ovarian; HCT-116 colon; U251 CNS; NCI-H460 lung; CCRF-CEM leukemia; SK-MEL-28 melanoma; UACC-62 melanoma; LOX IMVI melanoma.
Holding throughout (assay): growth of human tumour cells (NCI), 48 h

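Cells were grown in 96-well plates and exposed to each compound for 48 hours at five concentrations; endpoints were interpolated linearly between bracketing concentrations, or set to the highest concentration if not reached. Abbreviation: GI50, concentration required for 50% inhibition of growth. At the TGI there is no net growth.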

`COc1ccc(-c2nn(-c3cccc(NC(=O)c4cccc(C(F)(F)F)c4)c3)cc2-c2ccncc2)cc1Cl`: the GI50 in the assay with OVCAR-8 ovarian was 3.34 µM; with HCT-116 colon, 3.05 µM; in the assay on U251 CNS it was 1.8 µM; with NCI-H460 lung, 2.95 µM; in the assay with CCRF-CEM leukemia, 1.9 µM; in the assay on SK-MEL-28 melanoma, 3.07 µM. Besides, the figures for the GI50 with UACC-62 melanoma and in the assay on LOX IMVI melanoma were 2.27 µM and 3.08 µM, respectively. The TGI in the assay on OVCAR-8 ovarian was greater than 100 µM; in the assay with HCT-116 colon, greater than 100 µM; in the assay with U251 CNS, 17.6 µM; in the assay with NCI-H460 lung it was greater than 100 µM; in the assay with CCRF-CEM leukemia it was greater than 100 µM; in the assay on SK-MEL-28 melanoma, 36 µM. Also, the figures for the TGI in the assay on UACC-62 melanoma and in the assay with LOX IMVI melanoma were 24 µM and 27.2 µM, respectively.

For `N#CCCSC(=S)C1CCCC1=N` (stereo not given), the TGI with OVCAR-8 ovarian, in the assay with HCT-116 colon, in the assay with U251 CNS, with NCI-H460 lung, in the assay on SK-MEL-28 melanoma and in the assay on UACC-62 melanoma was greater than 100 µM each time.

Regarding `Nc1ccc(-c2nc3ccccc3o2)cc1S`, the GI50 is 20.3 µM with OVCAR-8 ovarian; 15.1 µM with HCT-116 colon; 10.8 µM in the assay with U251 CNS; 13.2 µM in the assay with NCI-H460 lung; 14 µM in the assay with CCRF-CEM leukemia; 24.9 µM with SK-MEL-28 melanoma. The GI50 with UACC-62 melanoma is 13.2 µM; with LOX IMVI melanoma, 12.3 µM. The TGI with OVCAR-8 ovarian came out at 58 µM; with HCT-116 colon it was 28.3 µM; in the assay with U251 CNS, 22.7 µM; with NCI-H460 lung, 29.6 µM; in the assay on CCRF-CEM leukemia, 43.3 µM; in the assay with SK-MEL-28 melanoma, 58.8 µM. Further, the TGI worked out at 26 µM in the assay on UACC-62 melanoma and 24.8 µM in the assay with LOX IMVI melanoma.

With `Cc1cc2cc3cc(C)c(N)cc3[n+](C)c2cc1N`, the GI50 in the assay on OVCAR-8 ovarian was 2.26 µM; in the assay on HCT-116 colon it was 1.15 µM; with U251 CNS, 0.339 µM; in the assay on NCI-H460 lung, 1.01 µM; in the assay with CCRF-CEM leukemia, 1.36 µM; in the assay on SK-MEL-28 melanoma, 1.98 µM. Besides, the results for the GI50 in the assay on UACC-62 melanoma and with LOX IMVI melanoma were 1.41 µM and 1.35 µM, respectively. The TGI in the assay with OVCAR-8 ovarian came to 5.88 µM; in the assay with HCT-116 colon, 4.66 µM; in the assay with U251 CNS, 3.17 µM; in the assay with NCI-H460 lung, 3.26 µM; in the assay on CCRF-CEM leukemia, 17.5 µM; in the assay with SK-MEL-28 melanoma, 4.63 µM. Further, the TGI came out at 3.2 µM in the assay with UACC-62 melanoma and 3.34 µM in the assay on LOX IMVI melanoma.

Take `CCCCCCCCCCCCCCCCCC(=O)OCC(COC1OC(CS(=O)(=O)O)C(O)C(O)C1O)OC(=O)CCCCCCCCCCCCCCCCC` (stereo not given): the TGI in the assay with OVCAR-8 ovarian, in the assay on HCT-116 colon, in the assay with U251 CNS, in the assay on NCI-H460 lung, in the assay with CCRF-CEM leukemia and in the assay on SK-MEL-28 melanoma was greater than 100 µM each time. Moreover, the TGI in the assay on UACC-62 melanoma and in the assay on LOX IMVI melanoma was greater than 100 µM throughout.

Regarding H-HIIKKIRTWYRKAWHVLGKV-NH2, the GI50 in the assay with OVCAR-8 ovarian is 4.74 µM; in the assay on HCT-116 colon, 17.5 µM; in the assay on U251 CNS, 7.17 µM; in the assay with NCI-H460 lung it was 3.34 µM; in the assay on CCRF-CEM leukemia, 3.71 µM; with SK-MEL-28 melanoma, 2.61 µM. Also, the GI50 with LOX IMVI melanoma was 21.7 µM. Also, the TGI with OVCAR-8 ovarian is greater than 100 µM; with HCT-116 colon, 42 µM; with U251 CNS, greater than 100 µM; in the assay on NCI-H460 lung, 92.4 µM; in the assay on CCRF-CEM leukemia, greater than 100 µM; in the assay on SK-MEL-28 melanoma, 7.66 µM. In the assay with LOX IMVI melanoma, this molecule yielded a TGI of 82.3 µM.

On to `O=C(NCCNc1nccc(-c2c(-c3ccc(F)cc3)nc3sccn23)n1)c1ccccc1`, for which the GI50 was 5.95 µM with OVCAR-8 ovarian; 4.37 µM in the assay with HCT-116 colon; 8.57 µM in the assay on U251 CNS; 3.28 µM in the assay with NCI-H460 lung; 3.83 µM in the assay with CCRF-CEM leukemia; 13.4 µM with SK-MEL-28 melanoma. Besides, the GI50 in the assay on UACC-62 melanoma is 4.87 µM; with LOX IMVI melanoma, 4.3 µM. Moreover, the TGI is greater than 100 µM in the assay on OVCAR-8 ovarian; 35.8 µM in the assay on HCT-116 colon; greater than 100 µM in the assay with U251 CNS; 22.3 µM in the assay with NCI-H460 lung; 36.3 µM in the assay on CCRF-CEM leukemia; 37.1 µM in the assay with SK-MEL-28 melanoma. Besides, the values for the TGI in the assay on UACC-62 melanoma and in the assay on LOX IMVI melanoma were 19.9 µM and 31.4 µM, respectively.

For `NC1=CC(=O)c2nc3ccccc3c3ccnc1c23`, the GI50 is 2.39 µM in the assay on OVCAR-8 ovarian; 3.99 µM in the assay on HCT-116 colon; 2.17 µM in the assay on U251 CNS; 0.0908 µM in the assay with NCI-H460 lung; 11.6 µM with CCRF-CEM leukemia; 11.8 µM in the assay on SK-MEL-28 melanoma. Besides, the GI50 was 2.38 µM with UACC-62 melanoma and 0.219 µM with LOX IMVI melanoma. For the same molecule, the TGI in the assay with OVCAR-8 ovarian was 18.5 µM; in the assay on HCT-116 colon, greater than 100 µM; in the assay with U251 CNS, greater than 45.2 µM; in the assay on NCI-H460 lung, 4.6 µM; with CCRF-CEM leukemia it was greater than 100 µM; in the assay on SK-MEL-28 melanoma it was 32 µM. Besides, the TGI in the assay with UACC-62 melanoma worked out at 17.2 µM; with LOX IMVI melanoma it was 4.22 µM.

Regarding `Cc1c(-c2nnc(-c3ccc(F)cc3)o2)nnn1-c1ccnc2c(C(F)(F)F)cccc12`, the GI50 is 41.8 µM with OVCAR-8 ovarian; 16.7 µM with HCT-116 colon; 30.4 µM in the assay with U251 CNS; 30.4 µM in the assay on NCI-H460 lung; greater than 100 µM in the assay on CCRF-CEM leukemia; 22.6 µM in the assay with SK-MEL-28 melanoma. Besides, the values for the GI50 in the assay with UACC-62 melanoma and in the assay on LOX IMVI melanoma were greater than 100 µM and 44.5 µM, respectively. The TGI in the assay on OVCAR-8 ovarian is greater than 100 µM; in the assay on HCT-116 colon it was greater than 100 µM; with U251 CNS it was greater than 100 µM; with NCI-H460 lung, greater than 100 µM; in the assay on CCRF-CEM leukemia it was greater than 100 µM; in the assay with SK-MEL-28 melanoma, 74.1 µM. The TGI in the assay on UACC-62 melanoma and in the assay on LOX IMVI melanoma was greater than 100 µM each time.

As for `COc1nc(N)nc2c1ncn2[C@@H]1O[C@H](CO)[C@@H](O)[C@@H]1O`, the GI50 was greater than 100 µM with OVCAR-8 ovarian; greater than 100 µM in the assay with HCT-116 colon; greater than 100 µM with U251 CNS; greater than 100 µM in the assay with NCI-H460 lung; 2.66 µM in the assay on CCRF-CEM leukemia; greater than 100 µM with SK-MEL-28 melanoma. Besides, the GI50 in the assay on UACC-62 melanoma and in the assay on LOX IMVI melanoma was greater than 100 µM in each case. Further, the TGI with OVCAR-8 ovarian, in the assay with HCT-116 colon, in the assay with U251 CNS, in the assay with NCI-H460 lung, with CCRF-CEM leukemia and in the assay on SK-MEL-28 melanoma was greater than 100 µM throughout. Also, the TGI in the assay with UACC-62 melanoma and with LOX IMVI melanoma was greater than 100 µM each time.

The values are drawn from PubChem BioAssay (NCI).
